Experiment: xn = mol fraction of the nth substance listed
Details: 101 kPa

CCCC[n+]1ccn(C)c1.F[B-](F)(F)F + NC=O
x1 = 1
Details	speed of sound [m/s]	viscosity [mPa·s]
293.15 K	1576.8	127.6
298.15 K	1565.7	98.9
303.15 K	1554.4	76.3
313.15 K	1530.5	46.2

NC=O + CCCC[n+]1ccn(C)c1.F[B-](F)(F)F
Details	speed of sound [m/s]	viscosity [mPa·s]
293.15 K, x2 = 0.0675	1614.2	4.01
293.15 K, x2 = 0.135	1613.4	4.81
293.15 K, x2 = 0.2054	1611.9	7
293.15 K, x2 = 0.4499	1602.9	24.97
293.15 K, x2 = 0.6639	1593.2	54.2
293.15 K, x2 = 0.7588	1588.7	71.4
293.15 K, x2 = 0.8107	1586.2	81.8
293.15 K, x2 = 0.8626	1583.7	93.3
293.15 K, x2 = 0.9313	1580.3	109.6
298.15 K, x2 = 0	1602.4	3.27
298.15 K, x2 = 0.0675	1603	3.73
298.15 K, x2 = 0.135	1602.3	4.65
298.15 K, x2 = 0.2054	1600.8	6.6
298.15 K, x2 = 0.3629	1595.4	14.43
298.15 K, x2 = 0.4499	1591.8	20.95
298.15 K, x2 = 0.5095	1589.3	26.31
298.15 K, x2 = 0.569	1586.6	32.4
298.15 K, x2 = 0.6639	1582.2	43.6
298.15 K, x2 = 0.8626	1572.7	73.4
298.15 K, x2 = 0.9313	1569.3	85.6
303.15 K, x2 = 0	1590.5	2.918
303.15 K, x2 = 0.0675	1591.4	3.28
303.15 K, x2 = 0.135	1590.9	4.23
303.15 K, x2 = 0.2054	1589.4	5.84
303.15 K, x2 = 0.2758	1587.2	8.24
303.15 K, x2 = 0.3629	1584	12.35
303.15 K, x2 = 0.5095	1578	21.66
303.15 K, x2 = 0.569	1575.3	26.36
303.15 K, x2 = 0.6639	1570.9	35
303.15 K, x2 = 0.7588	1566.5	44.9
308.15 K, x2 = 0	1578.3	2.607
308.15 K, x2 = 0.0675	1579.4	3.049
308.15 K, x2 = 0.135	1579	3.99
308.15 K, x2 = 0.2054	1577.5	5.48
308.15 K, x2 = 0.3629	1572.2	10.72
308.15 K, x2 = 0.5095	1566.2	17.95
308.15 K, x2 = 0.569	1563.6	21.5
308.15 K, x2 = 0.6639	1559.3	27.92
308.15 K, x2 = 0.7588	1554.8	35.3
308.15 K, x2 = 0.8107	1552.3	39.7
308.15 K, x2 = 0.8626	1549.8	44.5
313.15 K, x2 = 0	1565.9	2.328
313.15 K, x2 = 0.0675	1567.3	2.599
313.15 K, x2 = 0.135	1567	3.4
313.15 K, x2 = 0.2758	1563.3	6.21
313.15 K, x2 = 0.5095	1554.2	14.39
313.15 K, x2 = 0.569	1551.6	17.16
313.15 K, x2 = 0.6639	1547.3	22.22
313.15 K, x2 = 0.7588	1542.9	28.02
313.15 K, x2 = 0.8107	1540.4	31.6
313.15 K, x2 = 0.8626	1537.8	35.2
313.15 K, x2 = 0.9313	1534.3	40.4
318.15 K, x2 = 0	1553.1	2.096
318.15 K, x2 = 0.0675	1554.9	2.4
318.15 K, x2 = 0.135	1554.6	2.982
318.15 K, x2 = 0.2054	1553	3.88
318.15 K, x2 = 0.3629	1547.7	7.11
318.15 K, x2 = 0.4499	1544.2	9.72
318.15 K, x2 = 0.5095	1541.8	11.78
318.15 K, x2 = 0.7588	1530.5	23.24
318.15 K, x2 = 0.8107	1528	26.2
318.15 K, x2 = 0.9313	1521.9	33.8
